Results published in patent US20030022253A1, “Method for identifying, isolating and producing neuroactive binding agents and binding agents derived thereby” (Nyxis Neurotherapies, Inc., priority 2001, published 2003).
Read-outs that look alike come from different tables or passages of the source. Values belong to the molecule of their own block, whether it stands above or below them.

Experiments:
[1] = molecular target: T1, NMDA receptor-ion channel complex; assay: [3H]TCP binding assay on washed hippocampal membranes; set-up: species or system rat; conditions: antagonist alone, no glutamate or glycine added; read-out: IC50, inhibition of [3H]TCP binding
T1 construct: other: antagonist alone, no glutamate or glycine added; other: combined addition, 50 μM of each
Method: (§1) Tissue Preparation. Crude synaptic membranes were prepared from rat Hippocampi or from rat forebrains (male Sprague-Dawley rats) and washed extensively to remove endogenous amino acids, as previously described by Ransom and Stec ((1988) Brain Res. 444, 25-32). […] Membranes were then pelleted by centrifugation at 48,000 g for 20 min. This step was repeated twice and the homogenate was stored at −70′ in the same buffer. Before each use, homogenates were thawed at room temperature, pelleted, and washed four additional times. […] The final washed membranes were resuspended at concentrations of 2-3 mg/ml in either 5 mM Tris-HCl buffer or 5 mM Tris-acetate buffer.
(§2) TCP binding assay. Measurements of specific [^3H]TCP binding were performed as described previously (Haring R., Kloog Y., Harshak-Felixbrodt N., and Sokolovsky M. (1987) Biochem. Biophys. Res. Commun. 142, 501-510). Final reaction of mixtures consisted of 50-100 μg of membrane protein in 200 μl of 5 mM Tris-HCl buffer and contained either [^3H]TCP, or [^3H]TCP and the appropriate concentration of NMDA-receptor ligands or MAbs. Reactions were initiated by the addition of the membranes to the reaction mixtures. Unless otherwise indicated, binding assays were performed under nonequilibrium conditions at 25° C. for 1 hr. Nonspecific binding was determined in parallel samples containing 100 μM unlabeled PCP. Binding reactions were terminated by filtration on Whatman GF/B glass filters that had been pretreated with 0.1% polyethyleneimine for 1 hr. The dissociation of [^3H]TCP from its membrane-binding site was measured after equilibrating the receptors with 20 nM [^3H]TCP for 120 min. The dissociation reaction was initiated by the addition of 100 μM unlabeled PCP in the presence and absence of NMDA-receptor ligands or MAb. Reactions were terminated immediately (zero time) and after incubation for the additional periods of time indicated.

[2] = molecular target: NMDA receptor-ion channel complex; assay: as above; set-up: species or system rat
Method: as §1, §2

[3] = molecular target: T2, NMDA receptor-ion channel complex (Rattus norvegicus, UniProt P35439); assay: as above
T2 construct: other: in the presence of 25 μM of B6B21; other: agonist alone
Method: as §1, §2

[4] = molecular target: T3, glycine-binding site of the NMDA-receptor complex (Rattus norvegicus, UniProt P35439); assay: [3H]glycine binding assay; conditions: Scatchard analysis, no antibody
T3 construct: Crude synaptic membranes were prepared from rat Hippocampi or from rat forebrains (male Sprague-Dawley rats); from tissue; host or cells: rat hippocampal or forebrain crude synaptic membranes (male Sprague-Dawley), Triton X-100 treated
Method: as §1

learning [5] = conditions: rats, IV doses up to 2 mg/kg; cited from earlier work
NMDA receptor complex = molecular target: T4, NMDA receptor complex (Rattus norvegicus, UniProt P35439); assay: Modified glycine site-dependent [3H]MK-801 binding assay with 7-chlorokynurenic acid; conditions: at 10^−6 M
T4 construct: Crude synaptic membranes were prepared using rat hippocampal tissue (male Sprague-Dawley rats); from tissue; host or cells: rat hippocampal crude synaptic membranes (male Sprague-Dawley)

learning [6] = conditions: rats, IV doses up to 2 mg/kg; cited from earlier work; remark: listed apart in the source

T2 sequence (Q00959 23-1464, other chains not shown): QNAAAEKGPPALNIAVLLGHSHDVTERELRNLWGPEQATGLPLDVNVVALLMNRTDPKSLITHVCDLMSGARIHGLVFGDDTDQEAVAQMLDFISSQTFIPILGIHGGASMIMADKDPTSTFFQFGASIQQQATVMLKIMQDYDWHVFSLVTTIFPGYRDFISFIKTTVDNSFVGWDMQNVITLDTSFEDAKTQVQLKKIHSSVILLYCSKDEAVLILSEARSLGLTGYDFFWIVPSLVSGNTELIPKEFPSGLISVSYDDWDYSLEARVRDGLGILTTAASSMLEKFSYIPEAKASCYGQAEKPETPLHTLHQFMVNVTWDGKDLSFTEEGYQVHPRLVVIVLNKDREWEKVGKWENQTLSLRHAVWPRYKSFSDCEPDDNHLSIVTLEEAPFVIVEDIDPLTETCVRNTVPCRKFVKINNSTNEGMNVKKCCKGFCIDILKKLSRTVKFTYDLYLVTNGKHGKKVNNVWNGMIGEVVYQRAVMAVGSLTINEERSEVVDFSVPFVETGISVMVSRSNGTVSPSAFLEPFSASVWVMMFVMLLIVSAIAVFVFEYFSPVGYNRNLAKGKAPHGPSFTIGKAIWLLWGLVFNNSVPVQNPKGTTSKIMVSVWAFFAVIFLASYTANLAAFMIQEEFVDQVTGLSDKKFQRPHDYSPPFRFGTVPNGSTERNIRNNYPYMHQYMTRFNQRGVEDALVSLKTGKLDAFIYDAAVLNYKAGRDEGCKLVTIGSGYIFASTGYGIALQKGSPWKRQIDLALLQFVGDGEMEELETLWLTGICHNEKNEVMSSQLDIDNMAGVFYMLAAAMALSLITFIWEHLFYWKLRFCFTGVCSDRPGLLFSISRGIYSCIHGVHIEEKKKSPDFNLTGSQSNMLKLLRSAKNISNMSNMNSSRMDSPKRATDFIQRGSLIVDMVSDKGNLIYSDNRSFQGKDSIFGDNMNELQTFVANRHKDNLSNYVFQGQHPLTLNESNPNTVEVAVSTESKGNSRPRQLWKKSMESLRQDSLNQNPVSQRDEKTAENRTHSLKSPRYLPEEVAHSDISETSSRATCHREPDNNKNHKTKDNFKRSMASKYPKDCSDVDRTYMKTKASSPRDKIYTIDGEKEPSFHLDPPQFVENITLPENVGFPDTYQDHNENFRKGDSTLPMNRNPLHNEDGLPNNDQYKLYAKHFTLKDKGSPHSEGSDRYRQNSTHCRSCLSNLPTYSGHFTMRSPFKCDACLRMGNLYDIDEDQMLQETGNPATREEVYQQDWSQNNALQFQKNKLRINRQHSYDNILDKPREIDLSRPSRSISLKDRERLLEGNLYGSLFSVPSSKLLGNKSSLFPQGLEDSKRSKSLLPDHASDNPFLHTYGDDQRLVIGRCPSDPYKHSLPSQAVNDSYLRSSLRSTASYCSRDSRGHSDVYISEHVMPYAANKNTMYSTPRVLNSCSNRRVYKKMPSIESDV
T2 sequence (Q00960 27-1482, other chains not shown, further chain): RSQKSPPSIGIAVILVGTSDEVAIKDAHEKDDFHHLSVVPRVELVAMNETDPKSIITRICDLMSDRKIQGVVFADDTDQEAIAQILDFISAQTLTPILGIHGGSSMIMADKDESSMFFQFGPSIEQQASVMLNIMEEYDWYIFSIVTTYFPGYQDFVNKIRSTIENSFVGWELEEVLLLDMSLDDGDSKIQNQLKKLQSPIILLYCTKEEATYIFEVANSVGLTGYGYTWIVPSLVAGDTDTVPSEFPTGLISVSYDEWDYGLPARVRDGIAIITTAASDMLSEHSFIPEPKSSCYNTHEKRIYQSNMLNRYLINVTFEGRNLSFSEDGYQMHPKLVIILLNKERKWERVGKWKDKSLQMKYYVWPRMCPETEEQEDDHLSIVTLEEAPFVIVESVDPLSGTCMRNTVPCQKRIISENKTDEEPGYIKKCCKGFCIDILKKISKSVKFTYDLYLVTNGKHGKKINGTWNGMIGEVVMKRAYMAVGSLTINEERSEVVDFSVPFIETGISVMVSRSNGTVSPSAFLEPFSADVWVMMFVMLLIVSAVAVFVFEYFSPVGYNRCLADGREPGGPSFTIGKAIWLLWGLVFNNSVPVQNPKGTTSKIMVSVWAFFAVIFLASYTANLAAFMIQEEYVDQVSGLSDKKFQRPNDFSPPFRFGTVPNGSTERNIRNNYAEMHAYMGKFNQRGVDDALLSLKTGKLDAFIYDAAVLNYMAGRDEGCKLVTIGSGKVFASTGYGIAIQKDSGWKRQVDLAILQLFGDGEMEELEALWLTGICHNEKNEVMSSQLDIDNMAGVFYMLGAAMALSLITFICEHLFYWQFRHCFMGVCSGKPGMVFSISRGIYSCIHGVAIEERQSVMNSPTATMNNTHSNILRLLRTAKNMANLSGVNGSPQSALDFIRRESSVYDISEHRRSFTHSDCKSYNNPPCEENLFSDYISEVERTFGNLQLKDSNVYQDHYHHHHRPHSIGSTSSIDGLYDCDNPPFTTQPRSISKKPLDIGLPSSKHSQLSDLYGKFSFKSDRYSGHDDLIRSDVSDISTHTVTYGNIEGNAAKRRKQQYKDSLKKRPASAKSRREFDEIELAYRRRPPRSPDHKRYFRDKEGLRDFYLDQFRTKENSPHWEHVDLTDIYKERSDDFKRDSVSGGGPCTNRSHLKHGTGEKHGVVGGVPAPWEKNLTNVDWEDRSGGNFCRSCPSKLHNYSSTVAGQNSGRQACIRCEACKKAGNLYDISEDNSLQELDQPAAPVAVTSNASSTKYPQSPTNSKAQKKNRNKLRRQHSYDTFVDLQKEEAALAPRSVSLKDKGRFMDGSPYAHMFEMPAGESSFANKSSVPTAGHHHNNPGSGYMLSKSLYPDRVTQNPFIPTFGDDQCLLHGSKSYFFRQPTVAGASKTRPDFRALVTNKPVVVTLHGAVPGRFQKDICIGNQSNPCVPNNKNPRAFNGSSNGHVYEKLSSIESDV

Molecule: O=C(O)c1cc(O)c2ccc(Cl)cc2n1 [7-Cl KYNA, 7-chlorokynurenic acid]
IC50 [1]: 6 µM
IC50 ([2]; in the presence of B6B21 (40 μg/ml), read-out: IC50, inhibition of [3H]TCP binding): 60 µM

Molecule: N[C@H](CCCP(=O)(O)O)C(=O)O [D-AP5, D-(−)-2-amino-5-phosphonovaleric acid]
IC50 [1]: 1.4 µM
IC50 ([3]; read-out: IC50, inhibition of [3H]TCP binding, in the presence of 50 μM glutamate): > 100 µM

Molecule: N[C@@H](CCC(=O)O)C(=O)O [glutamate]
concentration giving maximal stimulation of specific [3H]TCP binding [3]: > 10 µM
specific [3H]TCP binding ([3]; maximally stimulating concentration, non-equilibrium 1 h, 25° C., control 63): 132 fmol/mg of protein

ability to abolish the inhibitory effect of D-AP5 on [3H]TCP binding ([2]; 50 μM glycine or 40 μg/ml B6B21): Neither glycine nor B6B21 could abolish
specific [3H]TCP binding ([2]; added to maximally stimulating glutamate): 310 fmol/mg of protein
specific [3H]TCP binding ([2]; in the absence of added glutamate, glycine 50 μM, B6B21 25 μM): 155 fmol/mg of protein
Bmax of [3H]glycine binding [4]: 12.9 pmol/mg of protein
Molecule: NCC(=O)O [glycine]
potentiation of the glutamate effect on [3H]TCP binding ([2]; co-addition at concentrations giving maximal effects): potentiated the glutamate effect additively

Molecule: threonine-proline-proline-threonine [NT-13]
learning in the trace eyeblink paradigm (learning [5]): statistically significant increase in learning
[3H]MK-801 binding, % of control (NMDA receptor complex): 130%
learning in the Morris Water Maze (learning [6]): statistically significant increase in learning
